These results are taken from article PMC9014412 (Journal of medicinal chemistry, 2022).

The subject of one assay is HCT116 cells. Description: CellTiter-Glo 2.0 cell viability assay. It is filed as cell-based, human. The method, then: CellTiter-Glo 2.0 Reagent (Promega UK Ltd, G9242) was equilibrated to room temperature and added to the wells in a ratio of 1 volume reagent:5 volumes medium. Background luminescence was determined using medium alone plus reagent. The plates were shaken on an orbital shaker for 2 min to induce cell lysis and then incubated in the dark at room temperature for 10 min to stabilize the luminescent signal. Luminescence was captured on a CLARIOstar plate reader (BMG Labtech Ltd, UK) at 22 °C to give relative luminescence units and analyzed using BMG Labtech software. EC50 values were calculated by nonlinear regression (Hill plot) and log (inhibitor) versus response—variable slopes (four parameters) using GraphPad Prism 9 software. Each compound dose response was repeated as four independent biological replicates (n = 4).
For orientation: ATP-based viability assays read luminescence as a measure of living cells.

Another assay deals with HDAC3 (Homo sapiens, UniProt O15379). Description: HDAC3 degradation by quantitative western blotting in HCT116 cells. The conditions noted are these: HCT116 cells, 24 h, 0.1, 1 and 10 μM; compared with 1 at 10 μM. In general terms: A western blot detects proteins with antibodies after separation by electrophoresis.
Another assay relates to H3K56ac. The experiment in a line: Histone H3 Lys 56 acetylation (H3K56ac) western blotting. The conditions noted are these: HCT116 cells, 24 h, screen at 0.1, 1, 10 μM; relative to DMSO, CI-994 and 1 at 10 μM. The format is cell-based, human. An excerpt:
Supporting Information: Biology
Representative blots of two independent biological replicates.

Another assay has as its target HDAC1 (Homo sapiens, UniProt Q13547). Description: HDAC1 degradation by quantitative western blotting in HCT116 cells. The conditions noted are these: HCT116 cells; for HDAC1 degradation in initial screen (in words): 24 h, 0.1, 1 and 10 μM, compared with 1 at 10 μM.
The next assay addresses HDAC2 (Homo sapiens, UniProt Q92769). The experiment in a line: HDAC2 degradation by quantitative western blotting in HCT116 cells. Conditions: for HDAC2 degradation in initial screen (in words): HCT116 cells, 24 h, 0.1, 1 and 10 μM, compared with 1 at 10 μM.

The EC50 is the concentration at which the effect is half-maximal. A lower EC50 goes with a more potent agent. For orientation: Dmax means the largest share of the target that was removed. Usually DC50 stands for the concentration giving 50% degradation.

HDAC1, sequence (Q13547 whole entry): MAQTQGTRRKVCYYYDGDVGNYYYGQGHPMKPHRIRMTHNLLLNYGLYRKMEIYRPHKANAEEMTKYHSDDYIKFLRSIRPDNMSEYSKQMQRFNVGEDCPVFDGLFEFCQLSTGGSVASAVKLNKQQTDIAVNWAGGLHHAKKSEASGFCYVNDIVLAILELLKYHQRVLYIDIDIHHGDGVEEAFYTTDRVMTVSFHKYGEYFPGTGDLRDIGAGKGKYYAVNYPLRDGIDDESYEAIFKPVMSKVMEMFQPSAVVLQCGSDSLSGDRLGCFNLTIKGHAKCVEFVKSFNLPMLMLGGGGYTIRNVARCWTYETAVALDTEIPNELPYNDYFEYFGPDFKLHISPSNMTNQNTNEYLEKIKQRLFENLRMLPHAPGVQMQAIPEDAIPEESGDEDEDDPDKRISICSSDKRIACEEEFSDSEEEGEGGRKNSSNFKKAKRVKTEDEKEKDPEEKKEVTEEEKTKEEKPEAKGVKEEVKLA
HDAC3, sequence (O15379 whole entry): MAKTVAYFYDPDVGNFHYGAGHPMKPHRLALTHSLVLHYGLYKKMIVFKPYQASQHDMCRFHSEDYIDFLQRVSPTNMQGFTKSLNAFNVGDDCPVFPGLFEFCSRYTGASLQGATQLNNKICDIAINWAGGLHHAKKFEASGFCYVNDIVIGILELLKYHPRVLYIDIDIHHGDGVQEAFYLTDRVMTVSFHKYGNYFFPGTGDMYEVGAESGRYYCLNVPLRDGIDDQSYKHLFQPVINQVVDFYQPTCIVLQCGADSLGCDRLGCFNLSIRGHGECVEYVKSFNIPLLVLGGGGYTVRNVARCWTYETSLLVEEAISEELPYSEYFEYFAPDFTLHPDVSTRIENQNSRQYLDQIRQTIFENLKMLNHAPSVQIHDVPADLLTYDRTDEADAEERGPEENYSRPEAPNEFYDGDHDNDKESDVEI
HDAC3, sequence (Q9Y618 389-480 partner limits assumed): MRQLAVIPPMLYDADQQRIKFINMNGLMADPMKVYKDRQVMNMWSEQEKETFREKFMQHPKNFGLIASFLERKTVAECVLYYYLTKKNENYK
HDAC2, sequence (Q92769 whole entry): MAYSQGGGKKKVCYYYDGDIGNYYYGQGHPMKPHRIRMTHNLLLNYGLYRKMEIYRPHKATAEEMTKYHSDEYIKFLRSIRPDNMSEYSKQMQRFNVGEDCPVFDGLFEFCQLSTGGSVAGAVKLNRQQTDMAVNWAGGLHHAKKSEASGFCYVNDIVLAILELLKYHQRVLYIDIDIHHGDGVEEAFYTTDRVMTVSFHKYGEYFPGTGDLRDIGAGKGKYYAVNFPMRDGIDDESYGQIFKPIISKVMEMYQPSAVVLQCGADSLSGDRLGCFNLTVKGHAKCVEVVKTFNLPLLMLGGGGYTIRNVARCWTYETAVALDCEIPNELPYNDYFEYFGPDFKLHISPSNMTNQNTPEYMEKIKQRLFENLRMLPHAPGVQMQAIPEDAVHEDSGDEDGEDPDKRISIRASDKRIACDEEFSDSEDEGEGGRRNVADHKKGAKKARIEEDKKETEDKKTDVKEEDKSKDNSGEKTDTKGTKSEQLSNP
Experimental for HDAC1: (§1) Initially, each PROTAC was tested at 0.1, 1, and 10 μM in HCT116 cells for 24 h; then, cell extracts were prepared and evaluated for HDAC1/2 and 3 degradation by quantitative western blotting.
(§2) This cell line was incubated at 37 °C with 5% CO2.
(§3) HCT116 cells were seeded into 6-well plates (4 × 10^5 cells/well for 24 h, 2 × 10^5 cells/well for 48 h) for 24 h and then treated with DMSO or compounds at the indicated concentrations in fresh medium (5 mL total). After desired treatment time, the cells were harvested and then lysed in lysis buffer (50 mM Tris-HCl, 150 mM NaCl, 0.5% NP-40, 0.5% Triton X-100) supplemented with a protease inhibitor (Sigma, P8340). The suspension was incubated on ice for 30 min and centrifuged (18,000 rcf, 15 min, 4 °C); then, the supernatant was collected, and protein concentrations were quantified via Bradford Assay using Protein Assay Dye Reagent Concentrate (BIO-RAD). […] PageRuler Plus Prestained Ladder was used for size standards. After gel electrophoresis at 140 V for 90 min, the separated proteins were transferred onto a nitrocellulose membrane at 30 V for 60 min. The membranes were probed with primary antibodies (see the Supporting Information) for 60−90 min. Blots were developed with complimentary IRDye-conjugated secondary antibodies, and the bands were visualized using an Odyssey infrared imaging system. Image processing and band intensity quantification were performed using Image Studio Lite.
Experimental for HDAC3: as §1, §2, §3

With `Cc1ncsc1-c1ccc(CNC(=O)[C@@H]2C[C@@H](O)CN2C(=O)[C@@H](NC(=O)CCCCCCCCCCC(=O)Nc2ccc(C(=O)Nc3ccccc3N)cc2)C(C)(C)C)cc1` [Compound 1, N1-(4-((2-Aminophenyl)carbamoyl)phenyl)-N12-((S)-1-((2S,4R)-4-hydroxy-2-((4-(4-methylthiazol-5-yl)benzyl)carbamoyl)pyrrolidin-1-yl)-3,3-dimethyl-1-oxobutan-2-yl)dodecanediamide], the midpoint of the response in the assay on HCT116 cells (Homo sapiens, HCT-116, 48 h, 48 h), the EC50, lay at 4.3 ± 0.5 µM.
As to `Cc1ncsc1-c1ccc(CNC(=O)[C@@H]2C[C@@H](O)CN2C(=O)C(NC(=O)COCCOCCOCC(=O)Nc2ccc(C(=O)Nc3ccc(F)cc3N)cc2)C(C)(C)C)cc1` (stereo in doubt) [Compound 16, (2S,4R)-1-((S)-14-((4-((2-Amino-4-fluorophenyl)carbamoyl)-phenyl)amino)-2-(tert-butyl)-4,14-dioxo-6,9,12-trioxa-3-azatetradecanoyl)-4-hydroxy-N-(4-(4-methylthiazol-5-yl)benzyl)-pyrrolidine-2-carboxamide], the “HDAC3 degradation in initial screen (in words)” value (shortened to “HDAC3 degradation”) at HDAC3 is “only modest HDAC3 degradation at 10 μM”.
In the case of `Cc1ncsc1-c1ccc(CNC(=O)[C@@H]2C[C@@H](O)CN2C(=O)[C@@H](NC(=O)COCCCCCCOCC(=O)Nc2ccc(C(=O)Nc3ccccc3N)cc2)C(C)(C)C)cc1` [Compound 8, (2S,4R)-1-((S)-2-(2-((6-(2-((4-((2-Aminophenyl)carbamoyl)-phenyl)amino)-2-oxoethoxy)hexyl)oxy)acetamido)-3,3-dimethylbutanoyl)-4-hydroxy-N-(4-(4-methylthiazol-5-yl)benzyl)pyrrolidine-2-carboxamide], the “H3K56ac levels (in words)” value with H3K56ac is “matched those of CI-994”. Besides, the “HDAC1 degradation in initial screen (in words)” value (“HDAC1 degradation” for short) at HDAC1 is reported as “comparable to that of 1 but not maintained at 1 μM”. Also, the “HDAC3 degradation” value at HDAC3 is “loss of HDAC3 degradation compared to 6 and 7”.
Regarding `Cc1ncsc1-c1ccc(CNC(=O)[C@@H]2C[C@@H](O)CN2C(=O)[C@@H](NC(=O)CCCN2CCN(CCCC(=O)Nc3ccc(C(=O)Nc4ccccc4N)cc3)CC2)C(C)(C)C)cc1` [Compound 13, (2S,4R)-1-((S)-2-(4-(4-(4-((4-((2-Aminophenyl)carbamoyl)-phenyl)amino)-4-oxobutyl)piperazin-1-yl)butanamido)-3,3-dimethylbutanoyl)-4-hydroxy-N-(4-(4-methylthiazol-5-yl)benzyl)-pyrrolidine-2-carboxamide], the “H3K56ac levels (in words)” value in the assay with H3K56ac was “did not increase H3K56ac levels compared to the dimethyl sulfoxide (DMSO) control”. On HDAC1, the “HDAC1 degradation” value was “almost complete loss of HDAC1/2 degradation”. Also, on HDAC2, the “HDAC2 degradation in initial screen (in words)” value (“HDAC2 degradation” below) was “almost complete loss of HDAC1/2 degradation”. Besides, the “HDAC3 degradation” value at HDAC3 is “generally compromised”.
Turning to `Cc1ncsc1-c1ccc(CNC(=O)[C@@H]2C[C@@H](O)CN2C(=O)[C@@H](NC(=O)COCCOCC(=O)Nc2ccc(C(=O)Nc3ccccc3N)cc2)C(C)(C)C)cc1` [Compound 10, (2S,4R)-1-((S)-2-(2-(2-(2-((4-((2-Aminophenyl)carbamoyl)-phenyl)amino)-2-oxoethoxy)ethoxy)acetamido)-3,3-dimethylbutanoyl)-4-hydroxy-N-(4-(4-methylthiazol-5-yl)benzyl)pyrrolidine-2-carboxamide], in the assay on H3K56ac, the “H3K56ac levels (in words)” value is on record as “did not increase H3K56ac levels compared to the dimethyl sulfoxide (DMSO) control”. The “HDAC1 degradation” value on HDAC1 is given as “almost complete loss of HDAC1/2 degradation”. Further, on HDAC2, the “HDAC2 degradation” value is on record as “almost complete loss of HDAC1/2 degradation”. Further, the “HDAC3 degradation” value on HDAC3 is given as “generally compromised”.
In the case of `Cc1ncsc1-c1ccc(CNC(=O)[C@@H]2C[C@@H](O)CN2C(=O)C(NC(=O)CCCCCCCCCCC(=O)Nc2ccc(C(=O)Nc3ccc(F)cc3N)cc2)C(C)(C)C)cc1` (stereo in doubt) [Compound 15, N1-(4-((2-Amino-4-fluorophenyl)carbamoyl)phenyl)-N12-((S)-1-((2S,4R)-4-hydroxy-2-((4-(4-methylthiazol-5-yl)benzyl)carbamoyl)-pyrrolidin-1-yl)-3,3-dimethyl-1-oxobutan-2-yl)dodecanediamide], the “HDAC3 degradation” value at HDAC3 was “enhanced HDAC3 degradation compared to 1”.
Turning to `Cc1ncsc1-c1ccc(CNC(=O)[C@@H]2C[C@@H](O)CN2C(=O)[C@@H](NC(=O)C2(F)CC2)C(C)(C)C)c(OCCCCCCCCCCCC(=O)Nc2ccc(C(=O)Nc3ccccc3N)cc2)c1` [Compound 22, (2S,4R)-N-(2-((12-((4-((2-Aminophenyl)carbamoyl)phenyl)-amino)-12-oxododecyl)oxy)-4-(4-methylthiazol-5-yl)benzyl)-1-((S)-2-(1-fluorocyclopropane-1-carboxamido)-3,3-dimethylbutanoyl)-4-hydroxypyrrolidine-2-carboxamide], in the assay on HCT116 cells (CellTiter-Glo and flow cytometry), the “Effect on cell viability (in words)” value is listed as “little effects on cell viability”. In addition, in the assay on H3K56ac, the “H3K56ac levels (in words)” value is on record as “did not alter H3K56ac levels”. The “HDAC2 degradation” value on HDAC2 was “reduction in HDAC1 and HDAC2 degradation compared to 1”. On HDAC2 (HCT-116, read-out: Dmax HDAC2), the Dmax came out at 18%.
Take `Cc1ncsc1-c1ccc(CNC(=O)[C@@H]2C[C@@H](O)CN2C(=O)[C@@H](NC(=O)COCCOCCOCC(=O)Nc2ccc(C(=O)Nc3ccccc3N)cc2)C(C)(C)C)cc1` [Compound 11, (2S,4R)-1-((S)-14-((4-((2-Aminophenyl)carbamoyl)phenyl)-amino)-2-(tert-butyl)-4,14-dioxo-6,9,12-trioxa-3-azatetradecanoyl)-4-hydroxy-N-(4-(4-methylthiazol-5-yl)benzyl)pyrrolidine-2-carboxamide]: in the assay with H3K56ac, the “H3K56ac levels (in words)” value is “did not increase H3K56ac levels compared to the dimethyl sulfoxide (DMSO) control”. Moreover, the “HDAC1 degradation” value on HDAC1 is “almost complete loss of HDAC1/2 degradation”. Further, the “HDAC2 degradation” value on HDAC2 was “almost complete loss of HDAC1/2 degradation”. Besides, on HDAC3, the “HDAC3 degradation” value is on record as “generally compromised”.
For the compound “(2S,4R)-1-((S)-2-(2-((9-((4-((2-Aminophenyl)carbamoyl)phenyl)-amino)-9-oxononyl)oxy)acetamido)-3,3-dimethylbutanoyl)-4-hydroxy-N-(4-(4-methylthiazol-5-yl)benzyl)pyrrolidine-2-carboxamide [Compound 6]”, the “H3K56ac levels (in words)” value in the assay on H3K56ac is “increased H3K56ac to comparable or greater levels than CI-994 and 1”. Further, at HDAC3, the “HDAC3 degradation” value is given as “significantly enhanced compared to that of 1”.
As to `Cc1ncsc1-c1ccc(CNC(=O)[C@@H]2CC(O)CN2C(=O)[C@@H](NC(=O)COCCOCCOCCOCC(=O)Nc2ccc(C(=O)Nc3ccccc3N)cc2)C(C)(C)C)cc1` (stereo in doubt) [Compound 12, N1-(4-((2-Aminophenyl)carbamoyl)phenyl)-N14-((S)-1-((2S,4S)-4-hydroxy-2-((4-(4-methylthiazol-5-yl)benzyl)carbamoyl)-pyrrolidin-1-yl)-3,3-dimethyl-1-oxobutan-2-yl)-3,6,9,12-tetraoxatetradecanediamide], the “H3K56ac levels (in words)” value in the assay on H3K56ac is listed as “did not increase H3K56ac levels compared to the dimethyl sulfoxide (DMSO) control”. In addition, at HDAC1, the “HDAC1 degradation” value was “almost complete loss of HDAC1/2 degradation”. In addition, at HDAC2, the “HDAC2 degradation” value was “almost complete loss of HDAC1/2 degradation”. For the same compound, on HDAC3, the “HDAC3 degradation” value is listed as “generally compromised”.
For `Cc1ncsc1-c1ccc(CNC(=O)[C@@H]2C[C@@H](O)CN2C(=O)[C@@H](NC(=O)COCCCCCCCCCOCC(=O)Nc2ccc(C(=O)Nc3ccc(F)cc3N)cc2)C(C)(C)C)cc1` [Compound 17, (2S,4R)-1-((S)-2-(2-((9-(2-((4-((2-Amino-4-fluorophenyl)-carbamoyl)phenyl)amino)-2-oxoethoxy)nonyl)oxy)acetamido)-3,3-dimethylbutanoyl)-4-hydroxy-N-(4-(4-methylthiazol-5-yl)-benzyl)pyrrolidine-2-carboxamide], the “H3K56ac levels (in words)” value with H3K56ac is reported as “greater than twofold increase in H3K56ac compared to the DMSO control”. Also, the “HDAC1 degradation” value on HDAC1 is listed as “significant HDAC1 degradation was also still observed at 1 μM”. Moreover, the “HDAC3 degradation” value at HDAC3 is on record as “HDAC3 degradation was also enhanced at 1 μM compared to 1”.
With `Cc1ncsc1-c1ccc(CNC(=O)[C@@H]2C[C@@H](O)CN2C(=O)[C@@H](NC(=O)COCCOCCOCC(=O)Nc2ccc(C(=O)Nc3cc(-c4cccs4)ccc3N)cc2)C(C)(C)C)cc1` [Compound 20, (2S,4R)-1-((S)-14-((4-((2-Amino-5-(thiophen-2-yl)phenyl)-carbamoyl)phenyl)amino)-2-(tert-butyl)-4,14-dioxo-6,9,12-trioxa-3-azatetradecanoyl)-4-hydroxy-N-(4-(4-methylthiazol-5-yl)benzyl)-pyrrolidine-2-carboxamide], in the assay on H3K56ac, the “H3K56ac levels (in words)” value was “did increase H3K56ac to levels similar to 1”. Besides, at HDAC1, the “HDAC1 degradation” value is on record as “did not result in enhanced degradation potency of HDAC1/2”. For the same compound, the DC50 on HDAC1 (read-out: DC50 HDAC1, 24 h, quantitative western blotting) stood at 3.51 µM. Besides, the “HDAC2 degradation” value at HDAC2 was “did not result in enhanced degradation potency of HDAC1/2”.
